Assay results as given in US9452997B2, “Piperidine and piperazine derivatives as autotaxin inhibitors” (Merck Patent GmbH, priority 2009, dated 2016).

molecular target: T1, Recombinant autotaxin (Homo sapiens, UniProt Q13822); assay: Autotaxin assay (Amplex Red, LPC substrate); assay type: biochemical; details: % of control at 1E−05 (compound concentration); uninhibited control = 100%
T1 construct: made in house; host or cells: Hi5 insect cells (baculovirus)
Method in brief: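 Recombinant autotaxin (Hi5 baculovirus, 16 ng) pre-incubated with compound 30 min at 22° C, then reacted with 75 μM egg LPC for 90 min at 37° C. Choline released is coupled to H2O2 and Amplex Red fluorescence (ex 485/em 612 nm). IC50 from ten 1:3 dilutions from 30 μM, duplicates, normalised to 500 μM C14 LPA.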

In order of falling “% CTRL (1E−05)” value:
1. O=C(Nc1ccc2[nH]nnc2c1)C1CC(=O)N(C2CCN(C(=O)OCC3CCCO3)CC2)C1 (stereo not shown) [Compound 27, 4-[4-(1H-Benzotriazol-5-ylcarbamoyl)-2-oxo-pyrrolidin-1-yl]-piperidine-1-carboxylic acid tetrahydro-furan-2-ylmethyl ester]  83%
2. O=C(c1cc(Cl)c(F)c(Cl)c1)N1CCC(N2CCN(C(=O)c3ccc4[nH]nnc4c3)CC2)CC1 [Compound 91, (1H-Benzotriazol-5-yl)-{4-[1-(3,5-dichloro-4-fluoro-benzoyl)-piperidin-4-yl]-piperazin-1-yl}-methanone]  66%

same assay, conditions: recombinant autotaxin, LPC substrate, Amplex Red detection; values given as upper bounds

`O=C(OCc1ccc(SC(F)F)cc1)N1CCN(C2CCN(C(=O)c3ccc4[nH]nnc4c3)CC2)CC1` [Compound 168, 4-[1-(1H-Benzotriazole-5-carbonyl)-piperidin-4-yl]-piperazine-1-carboxylic acid 4-difluoromethylsulfanyl-benzyl ester] and `O=C(OCc1ccc(Br)cc1)N1CCN(C2CCN(C(=O)c3ccc4[nH]nnc4c3)CC2)CC1` [Compound 155, 4-[1-(1H-Benzotriazole-5-carbonyl)-piperidin-4-yl]-piperazine-1-carboxylic acid 4-bromo-benzyl ester] cannot be ordered by IC50: < 1 µM for the first, < 1 µM for the second.

`O=C(OCc1ccc(C(F)(F)F)cc1)N1CCC(n2ccc(-c3ccc4[nH]c(=O)oc4c3)n2)CC1` [Compound 108] and `CN(C1CCN(C(=O)OCc2ccc(C(F)(F)F)cc2)CC1)C1CCN(C(=O)c2ccc3[nH]nnc3c2)C1` (stereo not shown) [Compound 182, 4-{[1-(1H-Benzotriazole-5-carbonyl)-pyrrolidin-3-yl]-methyl-amino}-piperidine-1-carboxylic acid 4-trifluoromethyl-benzyl ester] cannot be ordered by IC50: < 10 µM for the first, < 10 µM for the second.

`O=C(Nc1ccc2[nH]nnc2c1)c1ccc(N2CCN(C(=O)OCc3ccc(C(F)(F)F)cc3)CC2)nc1` [Compound 111, 4-[5-(1H-Benzotriazol-5-ylcarbamoyl)-pyridin-2-yl]-piperazine-1-carboxylic acid 4-trifluoromethyl-benzyl ester] and `O=C(Nc1ccc(N2CCN(C(=O)OCc3ccc(C(F)(F)F)cc3)CC2)nc1)c1ccc2[nH]nnc2c1` [Compound 110, 4-{5-[(1H-Benzotriazole-5-carbonyl)-amino]-pyridin-2-yl}-piperazine-1-carboxylic acid 4-trifluoromethyl-benzyl ester] cannot be ordered by IC50: < 10 µM for the first, < 30 µM for the second.

`N[C@@H](Cc1c[nH]cn1)C(=O)N1CCN(C2CCN(C(=O)OCc3ccc(C(F)(F)F)cc3)CC2)CC1` [Compound 89, 4-{4-[(S)-2-Amino-3-(1H-imidazol-4-yl)-propionyl]-piperazin-1-yl}-piperidine-1-carboxylic acid 4-trifluoromethyl-benzyl ester] and `O=C(OCc1ccc(OC(F)(F)F)cc1)N1CCC(N2CCN(C(=O)c3ccc4[nH]nnc4c3)CC2)CC1` [Compound 76, 4-[4-(1H-Benzotriazole-5-carbonyl)-piperazin-1-yl]-piperidine-1-carboxylic acid 4-trifluoromethoxy-benzyl ester] cannot be ordered by IC50: < 30 µM for the first, < 1 µM for the second.

`O=C(OCc1ccc2c(c1)OCO2)N1CCN(C2CCN(C(=O)c3ccc4[nH]nnc4c3)CC2)CC1` [Compound 136, 4-[1-(1H-Benzotriazole-5-carbonyl)-piperidin-4-yl]-piperazine-1-carboxylic acid benzo[1,3]dioxol-5-ylmethyl ester] and `Cc1ccc(COC(=O)N2CCN(C3CCN(C(=O)c4ccc5[nH]nnc5c4)CC3)CC2)cc1` [Compound 40, 4-[1-(1H-Benzotriazole-5-carbonyl)-piperidin-4-yl]-piperazine-1-carboxylic acid 4-methyl-benzyl ester] cannot be ordered by IC50: < 10 µM for the first, < 10 µM for the second.

`O=C(OCc1cc(Br)cc(Br)c1)N1CCN(C2CCN(C(=O)c3ccc4[nH]nnc4c3)CC2)CC1` [Compound 148, 4-[1-(1H-Benzotriazole-5-carbonyl)-piperidin-4-yl]-piperazine-1-carboxylic acid 3,5-dibromo-benzyl ester] and `O=C(OCc1cc(Cl)cc(Br)c1)N1CCN(C2CCN(C(=O)c3ccc4[nH]nnc4c3)CC2)CC1` [Compound 146, 4-[1-(1H-Benzotriazole-5-carbonyl)-piperidin-4-yl]-piperazine-1-carboxylic acid 3-bromo-5-chloro-benzyl ester] cannot be ordered by IC50: < 1 µM for the first, < 1 µM for the second.

`Cc1ccc(C(OC(=O)N2CCN(C3CCN(C(=O)c4ccc5[nH]nnc5c4)CC3)CC2)(C(F)(F)F)C(F)(F)F)cc1` [Compound 170, 4-[1-(1H-Benzotriazole-5-carbonyl)-piperidin-4-yl]-piperazine-1-carboxylic acid 2,2,2-trifluoro-1-p-tolyl-1-trifluoromethyl-ethyl ester] and `CC(OC(=O)N1CCN(C2CCN(C(=O)c3ccc4[nH]nnc4c3)CC2)CC1)c1ccc(C(F)(F)F)cc1` (stereo not shown) [Compound 132, 4-[1-(1H-Benzotriazole-5-carbonyl)-piperidin-4-yl]-piperazine-1-carboxylic acid 1-(4-trifluoromethyl-phenyl)-ethyl ester] cannot be ordered by IC50: < 10 µM for the first, < 10 µM for the second.

`O=C(CCc1ccc(Cl)cc1F)N1CCN(C2CCN(C(=O)c3ccc4[nH]c(=O)oc4c3)CC2)CC1` [Compound 64, 6-(4-{4-[3-(4-Chloro-2-fluoro-phenyl)-propionyl]-piperazin-1-yl}-piperidine-1-carbonyl)-3H-benzooxazol-2-one] and `O=C(CCc1ccc(Cl)cc1Cl)N1CCC(N2CCN(C(=O)c3ccc4[nH]nnc4c3)CC2)CC1` [Compound 82, 1-{4-[4-(1H-Benzotriazole-5-carbonyl)-piperazin-1-yl]-piperidin-1-yl}-3-(2,4-dichloro-phenyl)-propan-1-one] cannot be ordered by IC50: < 10 µM for the first, < 10 µM for the second.

`O=C(OCc1ccc(Cl)cc1Cl)N1CCN(C2CCN(C(=O)c3ccc4[nH]nnc4c3)CC2)CC1` [Compound 46, 4-[1-(1H-Benzotriazole-5-carbonyl)-piperidin-4-yl]-piperazine-1-carboxylic acid 2,4-dichloro-benzyl ester] and `O=C(OCc1cc(Cl)c(F)c(Cl)c1)N1CCN(C2CCN(C(=O)c3ccc4[nH]nnc4c3)CC2)CC1` [Compound 97, 4-[1-(1H-Benzotriazole-5-carbonyl)-piperidin-4-yl]-piperazine-1-carboxylic acid 3,5-dichloro-4-fluoro-benzyl ester] cannot be ordered by IC50: < 1 µM for the first, < 1 µM for the second.

`O=C(OCc1cc(F)c(F)c(Cl)c1)N1CCN(C2CCN(C(=O)c3ccc4[nH]nnc4c3)CC2)CC1` [Compound 116, 4-[1-(1H-Benzotriazole-5-carbonyl)-piperidin-4-yl]-piperazine-1-carboxylic acid 3-chloro-4,5-difluoro-benzyl ester] and `O=C(OCc1cc(Cl)cc(C(F)(F)F)c1F)N1CCN(C2CCN(C(=O)c3ccc4[nH]nnc4c3)CC2)CC1` [Compound 99, 4-[1-(1H-Benzotriazole-5-carbonyl)-piperidin-4-yl]-piperazine-1-carboxylic acid 5-chloro-2-fluoro-3-trifluoromethyl-benzyl ester] cannot be ordered by IC50: < 1 µM for the first, < 1 µM for the second.

`O=C(OCc1cc(F)cc(C(F)(F)F)c1)N1CCC(N2CCN(C(=O)c3ccc4[nH]nnc4c3)CC2)CC1` [Compound 75, 4-[4-(1H-Benzotriazole-5-carbonyl)-piperazin-1-yl]-piperidine-1-carboxylic acid 3-fluoro-5-trifluoromethyl-benzyl ester] and `O=C(OCc1cc(C(F)(F)F)cc(C(F)(F)F)c1)N1CCN(C2CCN(C(=O)c3ccc4[nH]nnc4c3)CC2)CC1` [Compound 35, 4-[1-(1H-Benzotriazole-5-carbonyl)-piperidin-4-yl]-piperazine-1-carboxylic acid 3,5-bis-trifluoromethyl-benzyl ester] cannot be ordered by IC50: < 1 µM for the first, < 1 µM for the second.

`O=C(CCc1ccc(C(F)(F)F)cc1)N1CCC(N2CCN(C(=O)c3cccc(-c4ncc[nH]4)c3)CC2)CC1` [Compound 60, 1-(4-{4-[3-(1H-Imidazol-2-yl)-benzoyl]-piperazin-1-yl}-piperidin-1-yl)-3-(4-trifluoromethyl-phenyl)-propan-1-one] and `O=C(c1ccc2[nH]nnc2c1)N1CCC(N2CCN(C(=O)c3ccccc3-c3cccc(C(F)(F)F)c3)CC2)CC1` [Compound 125, (1H-Benzotriazol-5-yl)-{4-[4-(3′-trifluoromethyl-biphenyl-2-carbonyl)-piperazin-1-yl]-piperidin-1-yl}-methanone] cannot be ordered by IC50: < 30 µM for the first, < 10 µM for the second.

`CC(OC(=O)N1CCN(C2CCN(C(=O)c3ccc4[nH]nnc4c3)CC2)CC1)c1cc(C(F)(F)F)cc(C(F)(F)F)c1` (stereo not shown) [Compound 172, 4-[1-(1H-Benzotriazole-5-carbonyl)-piperidin-4-yl]-piperazine-1-carboxylic acid 1-(3,5-bis-trifluoromethyl-phenyl)-ethyl ester] and `O=C(Cc1cc(C(F)(F)F)cc(C(F)(F)F)c1)N1CCN(C2CCN(C(=O)c3ccc4[nH]c(=O)oc4c3)CC2)CC1` [Compound 142, 6-(4-{4-[2-(3,5-Bis-trifluoromethyl-phenyl)-acetyl]-piperazin-1-yl}-piperidine-1-carbonyl)-3H-benzooxazol-2-one] cannot be ordered by IC50: < 10 µM for the first, < 10 µM for the second.

`O=C(NCCc1cccnc1)C1CC(=O)N(C2CCN(C(=O)OCc3cc(Cl)cc(Cl)c3)CC2)C1` (stereo not shown) [Compound 30, 4-[2-Oxo-4-(2-pyridin-3-yl-ethylcarbamoyl)-pyrrolidin-1-yl]-piperidine-1-carboxylic acid 3,5-dichloro-benzyl ester] and `O=C(NC1CCN(C2CCN(C(=O)OCc3cc(Cl)cc(Cl)c3)CC2)C1)c1ccc2[nH]nnc2c1` (stereo not shown) [Compound 9, 4-{3-[(1H-Benzotriazole-5-carbonyl)-amino]-pyrrolidin-1-yl}-piperidine-1-carboxylic acid 3,5-dichloro-benzyl ester] cannot be ordered by IC50: < 30 µM for the first, < 1 µM for the second.

`O=C(NC1CCN(C2CCN(C(=O)OCc3ccc(Cl)cc3)CC2)C1)c1ccc2[nH]nnc2c1` (stereo not shown) [Compound 7, 4-{3-[(1H-Benzotriazole-5-carbonyl)-amino]-pyrrolidin-1-yl}-piperidine-1-carboxylic acid 4-chloro-benzyl ester] was tested, and the IC50 was < 10 µM.
